In PubChem BioAssay (NCI):
Where “and” joins values, the source holds several entries; their conditions need not be identical. Equal entries are not always repeated.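 Growth conditions: 96-well plates. Treatment: test compound, 48 hours, 5 concentrations. Analysis: linear interpolation between bracketing concentrations; unreached endpoints set to highest concentration. The concentration for 50% growth inhibition is given as GI50. TGI denotes the concentration required for complete inhibition of growth.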

Legend:
Experiment in all cases: DTP human tumour cell line panel, 48 h
MDA-MB-435 = tested on: MDA-MB-435
EKVX NSCLC = tested on: EKVX NSCLC
ACHN renal = tested on: ACHN renal
SK-MEL-5 melanoma = tested on: SK-MEL-5 melanoma
SN12C renal = tested on: SN12C renal
OVCAR-4 ovarian = tested on: OVCAR-4 ovarian
NCI-H522 lung = tested on: NCI-H522 lung
UACC-257 melanoma = tested on: UACC-257 melanoma
SK-MEL-2 melanoma = tested on: SK-MEL-2 melanoma
NCI-H23 lung = tested on: NCI-H23 lung

| Structure (SMILES) | TGI (MDA-MB-435) [µM] | TGI (EKVX NSCLC) | TGI (ACHN renal) [µM] | TGI (SK-MEL-5 melanoma) | TGI (SN12C renal) | TGI (OVCAR-4 ovarian) | TGI (NCI-H522 lung) | TGI (UACC-257 melanoma) | TGI (SK-MEL-2 melanoma) | TGI (NCI-H23 lung) | GI50 (EKVX NSCLC) | GI50 (SK-MEL-5 melanoma) | GI50 (OVCAR-4 ovarian) | GI50 (NCI-H522 lung) | GI50 (UACC-257 melanoma) | GI50 (SK-MEL-2 melanoma) | GI50 (NCI-H23 lung) |
| --- | --- | --- | --- | --- | --- | --- | --- | --- | --- | --- | --- | --- | --- | --- | --- | --- | --- |
| O=C(O)c1ccccc1-c1ccccc1C(=O)c1ccccc1 | > 100 | > 100 µM | > 100 | > 100 µM | > 100 µM | > 100 µM | > 100 µM | > 100 µM | > 100 µM | > 100 µM |  |  |  |  |  |  |  |
| CNC(=O)OCC1=C(COC(=O)NC)CN(c2ccccc2)C1 | > 100 | > 100 µM | > 100 | > 100 µM | > 100 µM | > 100 µM |  | > 100 µM | > 100 µM | > 100 µM |  |  |  |  |  |  |  |
| NC(CO)c1ccccc1 (stereo not given) |  | > 100 µM | > 100 | > 100 µM |  | > 100 µM | > 100 µM | > 100 µM | > 100 µM |  |  |  |  |  |  |  |  |
| CCCCCCCC(CC(=O)O)OC(=O)CC(CCCCCCC)OC1OC(C)C(O)C(O)C1OC1OC(C)C(O)C(O)C1O (stereo not given) | > 100 | > 100 µM | > 100 | > 100 µM | > 100 µM |  | > 100 µM | > 100 µM | > 100 µM | > 100 µM |  |  |  |  |  |  |  |
| O=C(Nc1ccccc1)N1N=C(c2ccccc2)C1c1ccccc1 (stereo not given) |  | > 100 µM | 65.8 | 54.7 µM | > 100 µM | > 100 µM | 37 µM | > 100 µM |  | 72.1 µM |  |  |  |  |  |  |  |
| COc1ccccc1OC/C(N=Cc1ccncc1)=N/NC(=O)c1ccncc1 | > 100 | > 100 µM | > 100 |  | > 100 µM | > 100 µM | > 100 µM | > 100 µM | > 100 µM | > 100 µM |  |  |  |  |  |  |  |
| COC(=O)C(Cc1ccccc1)NC(=O)CCCNC(=O)OCc1ccccc1 (stereo not given) | > 100 | > 100 µM | > 100 | 46.8 µM | > 100 µM | > 100 µM | > 100 µM |  |  | > 100 µM |  |  |  |  |  |  |  |
| CC(=O)c1c(O)c(C)c(O)c2c1OC1=CC(=O)C(C(C)=O)C(=O)C12C (stereo not given) |  | 17 µM and 48.2 µM |  | 9.29 µM and 33.8 µM | 8.95 µM and 50.1 µM | 61.3 µM and 35.1 µM | 15.2 µM and 56.6 µM | 22.7 µM and 64.5 µM | 14.5 µM and 50.6 µM | 26.6 µM and 49.6 µM | 4.39 µM and 20.3 µM | 3.56 µM and 16.5 µM | 5.28 µM and 9.79 µM | 4.15 µM and 19.3 µM | 6.02 µM and 30.4 µM | 4.42 µM and 25.4 µM | 6.72 µM and 18.7 µM |
| CCOP(=O)(OCC)C(F)(F)CC1CCCCC1 | > 10 | > 10 µM | > 10 | > 10 µM | > 10 µM | > 10 µM |  | > 10 µM | > 10 µM | > 10 µM |  |  |  |  |  |  |  |
| COC1(OC)N=C(N)C2(C#N)/C(=N/N(C)C)CC(C)C12C#N (stereo not given) | > 100 | > 100 µM | > 100 | > 100 µM | > 100 µM |  | > 100 µM | > 100 µM | > 100 µM | > 100 µM |  |  |  |  |  |  |  |
| Cc1ccc(Nc2nnc3n2S(=O)(=O)c2cc(C)c(Cl)cc2S3)cc1 | 70.4 | 87.4 µM | > 100 | 29.6 µM |  | > 100 µM | 5.66 µM | > 100 µM | 67.1 µM | 48.3 µM |  |  |  |  |  |  |  |
| COc1cc2cc3c4c(cc(OC)c(OC)c4c2cc1OC)CCN3C(=O)OCCBr |  | > 100 µM | > 100 | > 100 µM | > 100 µM |  | > 100 µM | > 100 µM | > 100 µM | > 100 µM |  |  |  |  |  |  |  |
| COc1ccc(S(=O)(=O)Nc2ccc(-c3csc(N4C(=O)/C(=C/C=C\c5ccccc5)N=C4c4ccccc4)n3)cc2)cc1Cl | 62 |  | > 100 | > 100 µM | > 100 µM | 88.9 µM | 47.3 µM | > 100 µM | 56.3 µM | 42.4 µM |  |  |  |  |  |  |  |
| C=C1C(=O)O[C@H]2C(=O)[C@H](C)CCC[C@@](C)(O)/C=C\C[C@@]3(C)O[C@@H]3C[C@@H]12 | 36.1 |  | 20.5 | 29 µM | 31.3 µM |  | 9.08 µM | 31 µM | 41.5 µM | 68.8 µM |  |  |  |  |  |  |  |
| Cc1cnc2[nH]c(-c3ccccc3)cc(=O)c2c1 |  | > 82.2 µM | > 100 | 21.2 µM | > 14 µM | > 100 µM | 0.526 µM |  | > 35.7 µM | > 13.5 µM |  |  |  |  |  |  |  |
| CCOC(=O)C(Cc1c(-c2[nH]c3ccccc3c2CC(NC(=O)CNC(C)=O)C(=O)OCC)[nH]c2ccccc12)NC(=O)CNC(C)=O (stereo not given) | > 100 | > 100 µM |  | > 100 µM | > 100 µM | > 100 µM | 88.8 µM | 73.5 µM | 39.9 µM | > 100 µM |  |  |  |  |  |  |  |
| COc1cc([C@@H]2c3cc4c(cc3[C@@H](Nc3ccc(Cl)cc3C(=O)c3ccccc3Cl)[C@H]3COC(=O)[C@H]23)OCO4)cc(OC)c1OC | 0.397 | > 100 µM |  |  | > 100 µM | > 100 µM | 0.237 µM | > 100 µM | > 100 µM | > 53.8 µM |  |  |  |  |  |  |  |
| COc1ccc(-c2c(C(C)=O)c(C)n(C3OC(CO)C(O)C(O)C3O)c(=S)c2C#N)cc1 (stereo not given) | > 100 | > 100 µM | > 100 | > 100 µM | > 100 µM | > 100 µM |  | > 100 µM |  | > 100 µM |  |  |  |  |  |  |  |
| CC(=O)Oc1ccc2c(c1)c1c(OC(C)=O)c3ccccc3c(OC(C)=O)c1n2Cc1cccc(C)c1 | > 100 | 57.3 µM | > 100 |  | > 100 µM | > 100 µM | 52.8 µM |  | 48.4 µM | > 100 µM |  |  |  |  |  |  |  |
| CCN(CC)c1ccc(C(=C2C=CC(=[N+](CC)CC)C=C2)c2ccccc2)cc1 |  | 0.581 µM | 0.145 | 0.041 µM | 0.0878 µM | 0.488 µM | 0.143 µM | 0.18 µM | 0.0889 µM | 0.0929 µM |  |  |  |  |  |  |  |
| O=C(O)c1ccc(Nc2cnc3ccc(C(F)(F)F)cc3n2)cc1 | 72.3 | > 100 µM | 32.6 | 32 µM | 90.2 µM | 40.7 µM |  | 93.9 µM | 30.7 µM | 33.5 µM |  |  |  |  |  |  |  |
| c1ccc(C/C(=N\Nc2nc3ccccc3o2)c2ccccn2)cc1 | 12.7 | < 0.0267 µM | 3.31 | 0.368 µM | 3.67 µM |  | 18.9 µM | 3.85 µM | 20.7 µM | > 36.4 µM |  |  |  |  |  |  |  |
